Reference: patent US8404849B2, “Processes for producing modulators of cystic fibrosis transmembrane conductance regulator” (Vertex Pharmaceuticals, priority 2010, dated 2013)

Target: T1, ΔF508-CFTR (Homo sapiens, UniProt P13569, DEL508-508)
T1 construct: expressed in transfected cells; host or cells: NIH3T3 mouse fibroblasts, stably expressing, cultured at 27 °C (temperature-corrected)
Experiment: Membrane potential optical assay for identification of ΔF508-CFTR potentiators (FLIPR III, forskolin activation)
Format: cell-based
Details: for Emax: NIH3T3, 100% efficacy is the maximum response obtained with 4-methyl-2-(5-phenyl-1H-pyrazol-3-yl)phenol, ΔF508 CFTR NIH 3T3 cells; for EC50: temperature-corrected ΔF508 CFTR NIH 3T3 cells
Description: The assay utilizes fluorescent voltage sensing dyes to measure changes in membrane potential using a fluorescent plate reader (e.g., FLIPR III, Molecular Devices, Inc.) as a readout for increase in functional ΔF508-CFTR in NIH 3T3 cells. The driving force for the response is the creation of a chloride ion gradient in conjunction with channel activation by a single liquid addition step after the cells have previously been treated with compounds and subsequently loaded with a voltage sensing dye.
To identify potentiators of ΔF508-CFTR, a double-addition HTS assay format was developed. This HTS assay utilizes fluorescent voltage sensing dyes to measure changes in membrane potential on the FLIPR III as a measurement for increase in gating (conductance) of ΔF508 CFTR in temperature-corrected ΔF508 CFTR NIH 3T3 cells. The driving force for the response is a Cl^− ion gradient in conjunction with channel activation with forskolin in a single liquid addition step using a fluorescent plate reader such as FLIPR III after the cells have previously been treated with potentiator compounds (or DMSO vehicle control) and subsequently loaded with a redistribution dye.
Solutions • Bath Solution #1: (in mM) NaCl 160, KCl 4.5, CaCl2 2, MgCl2 1, HEPES 10, pH 7.4 with NaOH. Chloride-Free Bath Solution: Chloride Salts in Bath Solution #1 are Substituted with Gluconate Salts.
NIH3T3 mouse fibroblasts stably expressing ΔF508-CFTR are used for optical measurements of membrane potential. The cells are maintained at 37° C. in 5% CO2 and 90% humidity in Dulbecco's modified Eagle's medium supplemented with 2 mM glutamine, 10% fetal bovine serum, 1×NEAA, β-ME, 1× pen/strep, and 25 mM HEPES in 175 cm^2 culture flasks. For all optical assays, the cells were seeded at ˜20,000/well in 384-well matrigel-coated plates and cultured for 2 hrs at 37° C. before culturing at 27° C. for 24 hrs. for the potentiator assay. For the correction assays, the cells are cultured at 27° C. or 37° C. with and without compounds for 16-24 hours.

T1 sequence (P13569 with tags, fused parts or gaps DEL508-508): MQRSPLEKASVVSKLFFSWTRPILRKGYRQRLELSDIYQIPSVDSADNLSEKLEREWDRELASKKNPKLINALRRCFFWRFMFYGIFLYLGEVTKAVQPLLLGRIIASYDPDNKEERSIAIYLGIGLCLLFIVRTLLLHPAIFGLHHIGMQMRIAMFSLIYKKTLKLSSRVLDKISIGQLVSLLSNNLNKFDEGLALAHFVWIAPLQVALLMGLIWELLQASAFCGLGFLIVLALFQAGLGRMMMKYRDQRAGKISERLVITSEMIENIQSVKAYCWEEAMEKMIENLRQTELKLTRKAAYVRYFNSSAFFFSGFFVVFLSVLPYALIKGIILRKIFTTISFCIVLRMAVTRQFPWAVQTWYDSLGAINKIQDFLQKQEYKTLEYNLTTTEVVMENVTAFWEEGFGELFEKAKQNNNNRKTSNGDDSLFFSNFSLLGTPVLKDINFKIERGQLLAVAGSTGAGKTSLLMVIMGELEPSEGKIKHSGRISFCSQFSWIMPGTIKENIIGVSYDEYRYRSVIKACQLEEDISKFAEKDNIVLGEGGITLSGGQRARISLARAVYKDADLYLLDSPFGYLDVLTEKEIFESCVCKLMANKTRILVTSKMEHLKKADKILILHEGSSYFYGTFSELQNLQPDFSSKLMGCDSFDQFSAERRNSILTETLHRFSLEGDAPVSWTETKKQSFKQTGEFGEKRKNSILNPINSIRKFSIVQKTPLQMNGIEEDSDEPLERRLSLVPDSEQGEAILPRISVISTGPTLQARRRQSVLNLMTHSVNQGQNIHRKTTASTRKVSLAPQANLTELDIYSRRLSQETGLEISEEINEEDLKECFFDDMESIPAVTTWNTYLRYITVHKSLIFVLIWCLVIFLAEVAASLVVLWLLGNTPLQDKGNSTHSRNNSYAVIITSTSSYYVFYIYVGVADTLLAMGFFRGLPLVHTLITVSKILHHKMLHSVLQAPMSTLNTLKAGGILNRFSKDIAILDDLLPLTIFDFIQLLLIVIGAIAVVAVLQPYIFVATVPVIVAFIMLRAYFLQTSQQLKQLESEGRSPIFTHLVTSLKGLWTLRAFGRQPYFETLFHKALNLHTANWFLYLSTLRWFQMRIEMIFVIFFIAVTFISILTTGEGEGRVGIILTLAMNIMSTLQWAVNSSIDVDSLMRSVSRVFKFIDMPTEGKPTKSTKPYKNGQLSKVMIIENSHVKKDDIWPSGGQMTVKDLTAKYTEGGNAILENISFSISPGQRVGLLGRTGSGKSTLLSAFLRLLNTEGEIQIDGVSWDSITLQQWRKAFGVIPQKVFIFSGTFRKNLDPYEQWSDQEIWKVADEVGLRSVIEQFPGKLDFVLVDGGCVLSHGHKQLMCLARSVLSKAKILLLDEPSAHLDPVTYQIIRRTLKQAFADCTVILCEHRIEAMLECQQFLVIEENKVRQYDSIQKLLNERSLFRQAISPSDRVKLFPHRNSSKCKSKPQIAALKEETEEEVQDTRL

O=C(Nc1ccc(N2[C@@H]3CC[C@H]2[C@H](O)C3)cc1C(F)(F)F)c1c[nH]c2cccc(C(F)(F)F)c2c1=O (relative stereo) [Compound 1b]
Emax: > 100%
EC50: < 2000 nM

O=C(Nc1ccc(N2C3CCC2[C@H](O)C3)cc1C(F)(F)F)c1c[nH]c2cccc(C(F)(F)F)c2c1=O (stereo partly drawn) [Compound 1a]
Emax: 25 to 100%
EC50: < 2000 nM

O=C(Nc1ccc(N2C3CCC2CC3)cc1C(F)(F)F)c1c[nH]c2cccc(C(F)(F)F)c2c1=O [Formula II, N-(4-(7-azabicyclo[2.2.1]heptan-7-yl)-2-(trifluoromethyl)phenyl)-4-oxo-5-(trifluoromethyl)-1,4-dihydroquinoline-3-carboxamide]
Emax: 25 to 100%
EC50: < 2000 nM
